The values that follow come from paper PMC9693141 (Molecules, 2022).

Where two headings read alike, the source gives them in different places. A value given as a limit tells only on which side of the number the result lay.

Series [1] has as its system L. infantum axenic amastigotes. Kind of series: In vitro antileishmanial evaluation on axenic amastigotes (resazurin viability). Particulars: 72 h incubation then resazurin 24 h, triplicate, three independent experiments, read-out: L. infantum Axenic Amastigotes IC50 (µM) ± S.D. The class given is cell-based, Leishmania infantum. The procedure: Cultures of axenic amastigotes of L. infantum were adapted from. Briefly, axenic amastigotes of L. infantum were obtained from late log promastigotes diluted at 1 × 10^6/mL in M199 complete medium acidified at pH 5.5 and cultured at 37 °C with 5% CO2.
The evaluations of activity on axenic amastigotes were adapted from the protocols previously described. […] Cell viability was then monitored as described above. The activity of the compounds was expressed as IC50, which was determined by nonlinear regression using GraphPad Prism 7.0.
(The colour change of resazurin is a common sign of viable cells or microbes.)

Series [2] deals with L. infantum intramacrophagic amastigotes. Kind of series: In vitro antileishmanial evaluation on intramacrophage amastigotes in RAW264.7 macrophages (Giemsa counting). The series is classed as cell-based, Leishmania infantum. Particulars: infected RAW264.7 macrophages, 48 h of treatment, amastigotes per macrophage counted, read-out: L. infantum Intramacrophagic Amastigotes IC50 (µM) ± S.D. As to the method: Promastigotes of Leishmania infantum (MHOM/FR/2008/LEM5700) were cultured in the dark at 26 °C with 5% CO2 in M199 complete medium containing M199 medium supplemented with adenosine (100 µM), hemin (0.5 mg/L), Hepes (40 mM) pH 7.4, and heat-inactivated fetal bovine serum (10%; HIFBS). Cultures of axenic amastigotes of L. infantum were adapted from. Briefly, axenic amastigotes of L. infantum were obtained from late log promastigotes diluted at 1 × 10^6/mL in M199 complete medium acidified at pH 5.5 and cultured at 37 °C with 5% CO2.
(§1) The RAW 264.7 macrophages (ATCC) were cultured at 37 °C with 5% CO2 in DMEM complete medium containing Dulbecco’s Modified Eagle’s Medium (DMEM, Invitrogen, Thermo-Fisher, Villebon-sur-Yvette, France) supplemented with penicillin-streptomycin (100 U/mL; Invitrogen) and heat-inactivated fetal bovine serum (10%; HIFBS).
Concerning the evaluation on intramacrophage amastigotes, the determination of the cytotoxicity as presented above was necessary to use the highest drug concentrations to be studied on the intramacrophage amastigote model. The evaluation on the intracellular form on the parasite was performed as previously described. RAW264.7 macrophages were plated in 16-well Lab-Tek chamber slides (Thermo-Fisher Villebon-sur-Yvette, France) at a density of 2 × 10^4 cells per well and incubated for 24 h at 37 °C with 5% CO2. Axenic amastigotes were differentiated as described above, centrifuged at 2000× g for 10 min, resuspended in DMEM complete medium, and added to each well to reach a 16:1 parasite to macrophage ratio. After 24 h of infection at 37 °C with 5% CO2, extracellular parasites were removed, and DMEM complete medium (100 µL) containing two-fold serial dilutions of the compounds, from 100 µM to 0.049 µM, was added to each well. A positive control treated with 1% DMSO was added to each Lab-tek chamber slide. After 48 h of treatment, the medium was removed and cells were fixed in methanol for 1 min, stained in 10% Giemsa (Merck, Guyancourt, France) for 5 min, and further rinsed in water before observation in phase contrast at the microscope (Olympus CX31; Olympus, Rungis, France). The number of amastigotes was counted by two independent experimenters for a total of 300 macrophages per well and the ratio of amastigotes per macrophage was determined for each condition. This ratio was further compared with the one of the positive controls, considered as 100%, to determine a percentage of inhibition (% I), as follows: % I = 100 − [(ratio of amastigotes per macrophage in treated cells/ratio of amastigotes per macrophages in untreated cells) × 100]. The activity of the compounds was expressed as IC50, which was determined by nonlinear regression using GraphPad Prism 7.0. […] In vitro antileishmanial evaluations were performed in triplicate in three independent experiments.

The next series concerns RAW 264.7 macrophages. Kind of series: In vitro cytotoxicity on RAW 264.7 macrophages (resazurin). The class given is cell-based. As to conditions: 48 h of incubation, read-out: Cytotoxicity on RAW 264.7 CC50 (µM) ± S.D. As to the method:
as §1
Cells were plated in 96-well microplates at a density of 2 × 10^4 cells per well. […] In living cells, resazurin is reduced in resorufin, and this conversion is monitored by measuring OD570nm (resorufin) and OD600nm (resazurin; multimode microplate reader Spark®, Tecan, Lyon, France). […] In vitro cytotoxicity assays were performed in triplicate in three independent experiments.

Broadly, the IC50 is the concentration that gives 50% inhibition. What is called CC50 is the concentration at which the toxic effect on the cells reaches its halfway point.

On to `CC(C)=CCCC1(C)C=Cc2c(c3ccccc3n(CCCCC(=O)O)c2=O)O1` (stereo not shown) [Compound 15l, 5-(2-Methyl-2-(4-methylpent-3-en-1-yl)-5-oxo-2H-pyrano [3,2-c]quinolin-6(5H)-yl)pentanoic acid], for which the IC50 is 16.4 ± 1.7 µM in series [1] (Leishmania infantum) and > 100 µM in series [2] (Leishmania infantum).

Turning to `CC1(C)CCCC2(C)Oc3c(c(=O)n(Cc4ccccc4)c4ccccc34)C=C12` (stereo not shown) [Compound 16a, 5-Benzyl-8,8,11a-trimethyl-5,8,9,10,11,11a-hexahydro-6H-chromeno [3,2-c]quinolin-6-one], the IC50 in series [1] (Leishmania infantum) is 7 ± 2.1 µM; in series [2] (Leishmania infantum) it was > 25 µM.

As for `CC(C)=CCCC1(C)C=Cc2c(c3ccccc3n(Cc3ccccc3)c2=O)O1` (stereo not shown) [Compound 15a, 6-Benzyl-2-methyl-2-(4-methylpent-3-en-1-yl)-2,6-dihydro-5H-pyrano [3,2-c]quinolin-5-one], the IC50 in series [1] (Leishmania infantum) worked out at 16.8 ± 1.8 µM; in series [2] (Leishmania infantum), 23.7 ± 6.5 µM.

Turning to `CC(C)=CCCC1(C)C=Cc2c(c3ccccc3n(Cc3ccccn3)c2=O)O1` (stereo not shown) [Compound 15c, 2-Methyl-2-(4-methylpent-3-en-1-yl)-6-(pyridin-2-ylmethyl)-2,6-dihydro-5H-pyrano [3,2-c]quinolin-5-one], the figures for the IC50 in series [1] (Leishmania infantum) and in series [2] (Leishmania infantum) were 14.2 ± 4.3 µM and > 25 µM, respectively.

On to `Cn1c(=O)c2c(c3ccccc31)OC(C)(C)C1CCC(C)(O)C(Cl)C21` (stereo not shown) [Compound 3, Chloroaustralasine A], for which the half-inhibitory concentration (IC50) in series [1] was 8.1 ± 1.4 µM; in series [1] (Leishmania infantum) it was 8 µM; in series [2] (Leishmania infantum), > 50 µM.

On to `CC1(O)CCC2C(c3c(c4ccccc4[nH]c3=O)OC2(C)C)C1Cl` (stereo not shown) [Compound 4], for which the IC50 is 18.6 ± 2.5 µM in series [1] (Leishmania infantum) and > 6.25 µM in series [2] (Leishmania infantum).

Take `COCCn1c(=O)c2c(c3ccccc31)OC(C)(CCC=C(C)C)C=C2` (stereo not shown) [Compound 15d, 6-(2-Methoxyethyl)-2-methyl-2-(4-methylpent-3-en-1-yl)-2,6-dihydro-5H-pyrano [3,2-c]quinolin-5-one]: the IC50 in series [1] (Leishmania infantum) was 17.8 ± 2.3 µM; in series [2] (Leishmania infantum) it was > 25 µM.

Take `CC(C)=CCCC1(C)C=Cc2c(c3ccccc3n(CCc3ccccc3)c2=O)O1` (stereo not shown) [Compound 15f, 2-Methyl-2-(4-methylpent-3-en-1-yl)-6-phenethyl-2,6-dihydro-5H-pyrano [3,2-c]quinolin-5-one]: the IC50 is 9.8 ± 2.9 µM in series [1] (Leishmania infantum) and > 50 µM in series [2] (Leishmania infantum).

Take `CCCCCn1c(=O)c2c(c3ccccc31)OC(C)(CCC=C(C)C)C=C2` (stereo not shown) [Compound 15g, 2-Methyl-2-(4-methylpent-3-en-1-yl)-6-pentyl-2,6-dihydro-5H-pyrano [3,2-c]quinolin-5-one]: the half-inhibitory concentration (IC50) was found to be 82.7 ± 6.5 µM in series [1] (Leishmania infantum) and 29.5 ± 9.9 µM in series [2] (Leishmania infantum). In addition, the cytotoxic concentration (CC50) in the series with RAW 264.7 macrophages was > 100 µM.

On to `Cn1c(=O)c2c(c3ccccc31)OC1(C)CCC3C1C2C3(C)C` (stereo not shown) [Compound 12, 1,1,3a,9-Tetramethyl-1,1a,1a1,2,3,3a,9,10b-octahydro-10H-4-oxa-9-azacyclobuta [7,1]indeno [5,6-a]naphthalen-10-one], for which the IC50 is 42.6 ± 2.1 µM in series [1] (Leishmania infantum) and > 50 µM in series [2] (Leishmania infantum).

Turning to `CC(C)=CCCC1(C)C=Cc2c(c3ccccc3[nH]c2=O)O1` (stereo not shown) [Compound 14, 2-Methyl-2-(4-methylpent-3-en-1-yl)-2,6-dihydro-5H-pyrano [3,2-c]quinolin-5-one], the half-maximal inhibitory concentration (IC50) in series [1] (Leishmania infantum) was 15.6 ± 1.8 µM; in series [2] (Leishmania infantum), > 100 µM.

As to `CC(C)=CCCC1(C)C=Cc2c(c3ccccc3n(C(=O)OC(C)(C)C)c2=O)O1` (stereo not shown) [Compound 15j, tert-Butyl 2-methyl-2-(4-methylpent-3-en-1-yl)-5-oxo-2H-pyrano [3,2-c]quinoline-6(5H)-carboxylate], the values for the IC50 in series [1] (Leishmania infantum) and in series [2] (Leishmania infantum) were 9.1 ± 0.4 µM and > 25 µM, respectively.

For `CC(C)=CCCC1(C)C=Cc2c(c3ccccc3n(S(=O)(=O)c3ccccc3)c2=O)O1` (stereo not shown) [Compound 15h, 2-Methyl-2-(4-methylpent-3-en-1-yl)-6-(phenylsulfonyl)-2,6-dihydro-5H-pyrano [3,2-c]quinolin-5-one], the concentration for half-maximal inhibition (IC50) in series [1] (Leishmania infantum) and in series [2] (Leishmania infantum) was > 100 µM throughout.

For the molecule `COC(=O)CCCCn1c(=O)c2c(c3ccccc31)OC(C)(CCC=C(C)C)C=C2` (stereo not shown) [Compound 15k, Methyl 5-(2-methyl-2-(4-methylpent-3-en-1-yl)-5-oxo-2H-pyrano [3,2-c]quinolin-6(5H)-yl)pentanoate], the IC50 came to 14.6 ± 2.1 µM in series [1] (Leishmania infantum) and 19 ± 2.2 µM in series [2] (Leishmania infantum).

As for `CCCCCCCCCCCCCCCCOP(=O)([O-])OCC[N+](C)(C)C` [Miltefosine, reference compound], the IC50 in series [1] (Leishmania infantum) came out at 1 ± 0.3 µM; in series [2] (Leishmania infantum) it was 6.7 ± 1.7 µM.

In the case of Zanthosimuline [Compound 7], the figures for the IC50 in series [1] and in series [2] were 29.1 ± 1 µM and > 100 µM, respectively.

Take `COc1cccc(Cn2c(=O)c3c(c4ccccc42)OC(C)(CCC=C(C)C)C=C3)c1` (stereo not shown) [Compound 15b, 6-(3-Methoxybenzyl)-2-methyl-2-(4-methylpent-3-en-1-yl)-2,6-dihydro-5H-pyrano [3,2-c]quinolin-5-one]: the IC50 in series [1] (Leishmania infantum) was 15 ± 1.7 µM; in series [2] (Leishmania infantum), > 25 µM.

For `Cn1c(=O)c2c(c3ccccc31)OC1(C)CCCC(C)(C)C1=C2` (stereo not shown) [Compound 11, 5,8,8,11a-Tetramethyl-5,8,9,10,11,11a-hexahydro-6H-chromeno [3,2-c]quinolin-6-one], the IC50 in series [1] (Leishmania infantum) was > 100 µM; in series [2] (Leishmania infantum) it was 14.7 ± 1.6 µM.

Take `CC(C)=CCCC1(C)C=Cc2c(c3ccccc3n(C(=O)Oc3ccccc3)c2=O)O1` (stereo not shown) [Compound 15i, Phenyl 2-methyl-2-(4-methylpent-3-en-1-yl)-5-oxo-2H-pyrano [3,2-c]quinoline-6(5H)-carboxylate]: the IC50 in series [1] (Leishmania infantum) is 12.9 ± 3.2 µM; in series [2] (Leishmania infantum), > 15 µM.
